# Literature values as cited in patent US9156879B1, “Chromatography media” (Merck Sharp & Dohme Corp., priority 2010, dated 2015).
# Settings: critical micelle concentration of detergent
row,Compound,CMC % (w/v)
1,CCCCCCCCCCCCOCCOCCOCCOCCOCCOCCOCCOCCO [C12E8],0.005 % (w/v)
2,CCCCCCCCCCCCCCCC[N+](C)(C)C.[Br-] [C16TAB],0.04 % (w/v)
3,"C[C@H](CCC(=O)NCCC[N+](C)(C)CCCS(=O)(=O)[O-])[C@H]1CC[C@H]2[C@@H]3[C@H](O)C[C@@H]4C[C@H](O)CC[C@]4(C)[C@H]3C[C@H](O)[C@]12C [CHAPS, 3[(3-cholamidopropyl)dimethylammonio]-1-propanesulfonate]",0.49 % (w/v)
4,C[C@H](CCC(=O)O)[C@H]1CC[C@H]2[C@@H]3[C@H](O)C[C@@H]4C[C@H](O)CC[C@]4(C)[C@H]3C[C@H](O)[C@]12C [Cholate],0.60 % (w/v)
5,CCCCCCCCO[C@@H]1O[C@H](CO)[C@@H](O)[C@H](O)[C@H]1O [Octylglucoside],0.73 % (w/v)
6,"CCCCCCCCCCCCOS(=O)(=O)[O-].[Na+] [SDS, sodium dodecyl sulfate]",0.23 % (w/v)
7,CCCCCCCC/C=C\CCCCCCCC(=O)OCCOCC(OCCO)C1OCC(OCCO)C1OCCO (stereo not drawn) [Tween 80],0.002 % (w/v)
8,CCCCCCCCCCCCCC[N+](C)(C)CCCS(=O)(=O)[O-] [Zwittergent 3-14],0.011 % (w/v)
9,Deoxycholate,0.21 % (w/v)
10,LysoPC,0.0004 % (w/v)
11,Nonidet P-40,0.017 % (w/v)
12,Triton X-100,0.021 % (w/v)
